The values that follow come from patent US12502362B2, “Inhibitors of nucleotidyltransferase superfamily enzymes as antibiotics” (priority 2017, dated 2025).

Where two headings read alike, the source gives them in different places.

Format in all cases: cell-based
The subject of test [1] is Klebsiella pneumonia. Briefly: Antibiotic susceptibility of Klebsiella pneumonia strains. The text has this:
(§1) All these MDR-bacteria are at least resistant to two classes of the antibiotics among five groups and/or specific antibiotics including quinolones/fluorquinolones, carbapenems, cephalosporins, aminoglycosides and piperacillin-tazobactam.

Test [2] has as its system Enterobacter cloacae complex. The test can be described thus: Antibiotic susceptibility of Enterobacter cloacae complex strain. Particulars: Ecc1 (Enterobacter cloacae complex).
Source text: as §1

Test [3] has as its system Citrobacter koseri. The test can be described thus: Antibiotic susceptibility of Citrobacter koseri strain. Particulars: Ck1 (Citrobacter koseri).
Source text: as §1

In test [4] the test system is Morganella morganii. Briefly: Antibiotic susceptibility of Morganella morganii strain. Particulars: Mm1 (Morganella morganii).
Source text: as §1

Test [5] has as its system MDR E. coli.
Source text: as §1

The subject of test [6] is MDR Acinetobacter baumannii.
Source text: as §1

Take Piperacillin-tazobactam [TZP]: the Antibiotic susceptibility entry in test [1] (Kp1 (Klebsiella pneumonia)) is given as “S”; in test [1] (Kp6 (Klebsiella pneumonia)), “R”; in test [2], “R”; in test [3], “I”; in test [4], “S”; in test [5] (Ec1 (E. coli)), “S”. Besides, the Antibiotic susceptibility entry in test [5] (Ec2 (E. coli)) is reported as “S”; in test [5] (Ec3 (E. coli)) it was “S”; in test [5] (Ec4 (E. coli)) it was “S”; in test [5] (Ec5 (E. coli)), “S”; in test [6] (Ab3 (Acinetobacter baumannii)), “R”.
For `CO/N=C(\C(=O)N[C@@H]1C(=O)N2C(C(=O)O)=C(CSc3nc(=O)c(=O)[nH]n3C)CS[C@H]12)c1csc(N)n1` [CRO, Ceftriaxone], the Antibiotic susceptibility entry was “R” in test [1] (Kp1 (Klebsiella pneumonia)); “R” in test [1] (Kp6 (Klebsiella pneumonia)); “R” in test [2]; “S” in test [3]; “I” in test [4]; “R” in test [5] (Ec1 (E. coli)). The Antibiotic susceptibility result in test [5] (Ec2 (E. coli)), in test [5] (Ec3 (E. coli)), in test [5] (Ec4 (E. coli)), in test [5] (Ec5 (E. coli)), in test [6] (Ab1 (Acinetobacter baumannii)) and in test [6] (Ab2 (Acinetobacter baumannii)) was “R” in each case. For the same compound, the Antibiotic susceptibility result in test [6] (Ab3 (Acinetobacter baumannii)), in test [6] (Ab4 (Acinetobacter baumannii)) and in test [6] (Ab5 (Acinetobacter baumannii)) was “R” each time.
For Amoxicillin-clavulanic acid [AMC], the Antibiotic susceptibility result in test [1] (Kp1 (Klebsiella pneumonia)) is reported as “S”; in test [1] (Kp6 (Klebsiella pneumonia)), “I”; in test [2], “R”; in test [3] it was “I”; in test [4] it was “R”; in test [5] (Ec1 (E. coli)), “S”. Also, the Antibiotic susceptibility entry is given as “S” in test [5] (Ec2 (E. coli)); “S” in test [5] (Ec3 (E. coli)); “S” in test [5] (Ec4 (E. coli)); “I” in test [5] (Ec5 (E. coli)); “R” in test [6] (Ab1 (Acinetobacter baumannii)); “R” in test [6] (Ab2 (Acinetobacter baumannii)). Besides, the Antibiotic susceptibility result in test [6] (Ab3 (Acinetobacter baumannii)) was “R”; in test [6] (Ab4 (Acinetobacter baumannii)), “R”; in test [6] (Ab5 (Acinetobacter baumannii)), “S”.
For `C[C@@H](O)[C@H]1C(=O)N2C(C(=O)O)=C(S[C@@H]3CN[C@H](C(=O)Nc4cccc(C(=O)O)c4)C3)[C@H](C)[C@H]12` [ETP, Ertapenem], the Antibiotic susceptibility entry in test [1] (Kp1 (Klebsiella pneumonia)), in test [1] (Kp6 (Klebsiella pneumonia)), in test [2], in test [3], in test [4] and in test [5] (Ec1 (E. coli)) was “S” throughout. Moreover, the Antibiotic susceptibility result in test [5] (Ec2 (E. coli)), in test [5] (Ec3 (E. coli)), in test [5] (Ec4 (E. coli)) and in test [5] (Ec5 (E. coli)) was “S” throughout.
Take `CO/N=C(\C(=O)N[C@@H]1C(=O)N2C(C(=O)[O-])=C(C[N+]3(C)CCCC3)CS[C@H]12)c1csc(N)n1` [FEP, Cefepime]: the Antibiotic susceptibility result in test [1] (Kp1 (Klebsiella pneumonia)) is given as “R”; in test [1] (Kp6 (Klebsiella pneumonia)), “R”; in test [3], “S”; in test [4], “S”; in test [5] (Ec1 (E. coli)), “R”; in test [5] (Ec2 (E. coli)) it was “R”. Further, the Antibiotic susceptibility entry in test [5] (Ec3 (E. coli)), in test [5] (Ec4 (E. coli)), in test [5] (Ec5 (E. coli)), in test [6] (Ab1 (Acinetobacter baumannii)), in test [6] (Ab2 (Acinetobacter baumannii)) and in test [6] (Ab3 (Acinetobacter baumannii)) was “R” throughout. Moreover, the Antibiotic susceptibility entry in test [6] (Ab4 (Acinetobacter baumannii)) and in test [6] (Ab5 (Acinetobacter baumannii)) was “R” throughout.
As for `C[C@@H](O)[C@H]1C(=O)N2C(C(=O)O)=C(SCCN=CN)C[C@H]12` [IPM, Imipenem], the Antibiotic susceptibility entry in test [1] (Kp1 (Klebsiella pneumonia)), in test [1] (Kp6 (Klebsiella pneumonia)), in test [2], in test [3], in test [4] and in test [5] (Ec1 (E. coli)) was “S” throughout. Besides, the Antibiotic susceptibility entry in test [5] (Ec2 (E. coli)) was “S”; in test [5] (Ec3 (E. coli)) it was “S”; in test [5] (Ec4 (E. coli)), “S”; in test [5] (Ec5 (E. coli)) it was “S”; in test [6] (Ab1 (Acinetobacter baumannii)), “S”; in test [6] (Ab2 (Acinetobacter baumannii)), “I”. Moreover, the Antibiotic susceptibility result in test [6] (Ab3 (Acinetobacter baumannii)) is “I”; in test [6] (Ab4 (Acinetobacter baumannii)), “I”; in test [6] (Ab5 (Acinetobacter baumannii)) it was “R”.
For the compound `NC[C@H]1O[C@H](O[C@H]2[C@H](O)[C@@H](O[C@H]3O[C@H](CO)[C@@H](O)[C@H](N)[C@H]3O)[C@H](N)C[C@@H]2N)[C@H](N)C[C@@H]1O` [TOB, Tobramycin], the Antibiotic susceptibility result is “S” in test [1] (Kp1 (Klebsiella pneumonia)); “R” in test [1] (Kp6 (Klebsiella pneumonia)); “S” in test [2]; “I” in test [3]; “I” in test [4]; “I” in test [5] (Ec1 (E. coli)). Further, the Antibiotic susceptibility entry in test [5] (Ec2 (E. coli)) is on record as “I”; in test [5] (Ec3 (E. coli)), “I”; in test [5] (Ec4 (E. coli)) it was “R”; in test [5] (Ec5 (E. coli)), “R”; in test [6] (Ab1 (Acinetobacter baumannii)), “S”; in test [6] (Ab2 (Acinetobacter baumannii)), “S”. The Antibiotic susceptibility result is “S” in test [6] (Ab3 (Acinetobacter baumannii)), “S” in test [6] (Ab4 (Acinetobacter baumannii)) and “I” in test [6] (Ab5 (Acinetobacter baumannii)).
`C[C@@H](O)[C@H]1C(=O)N2C(C(=O)O)=C(S[C@@H]3CN[C@H](C(=O)N(C)C)C3)[C@H](C)[C@H]12` [MEM, Meropenem]: the Antibiotic susceptibility entry in test [1] (Kp1 (Klebsiella pneumonia)), in test [2], in test [3], in test [5] (Ec1 (E. coli)), in test [5] (Ec2 (E. coli)) and in test [5] (Ec3 (E. coli)) was “S” throughout. In addition, the Antibiotic susceptibility entry in test [5] (Ec4 (E. coli)) and in test [5] (Ec5 (E. coli)) was “S” in each case.
For the compound `CC(C)(O/N=C(\C(=O)N[C@@H]1C(=O)N2C(C(=O)[O-])=C(C[n+]3ccccc3)CS[C@H]12)c1csc(N)n1)C(=O)O` [CAZ, Ceftazidime], the Antibiotic susceptibility entry in test [1] (Kp1 (Klebsiella pneumonia)), in test [1] (Kp6 (Klebsiella pneumonia)), in test [2], in test [3], in test [4] and in test [5] (Ec1 (E. coli)) was “R” in each case. Besides, the Antibiotic susceptibility result in test [5] (Ec2 (E. coli)), in test [5] (Ec3 (E. coli)), in test [5] (Ec4 (E. coli)), in test [5] (Ec5 (E. coli)), in test [6] (Ab1 (Acinetobacter baumannii)) and in test [6] (Ab2 (Acinetobacter baumannii)) was “R” in each case. The Antibiotic susceptibility entry in test [6] (Ab3 (Acinetobacter baumannii)), in test [6] (Ab4 (Acinetobacter baumannii)) and in test [6] (Ab5 (Acinetobacter baumannii)) was “R” each time.
